Measured values published in PMC4222603, “Dual inhibition of HIV-1 replication by integrase-LEDGF allosteric inhibitors is predominant at the post-integration stage” (Retrovirology, 2013).
Like-named read-outs stand apart in the source and are kept apart here.

Key:
[1] = tested on: NL4-3 RT M41L, D67N, K103N, M184V, L210W, T215Y; test: Antiviral assay on Multi-drug (NRTI + NNRTI) resistant virus; type: cell-based, HIV-1; details: ratio EC50 resistant virus / wt virus; NRTI + NNRTI mutations
[2] = tested on: NL4-3 RT M41L, D67N, T69N, K70R, T215F, K219E; test: Antiviral assay on NRTI-resistant virus; type: cell-based, HIV-1; details: ratio EC50 resistant virus / wt virus
[3] = tested on: NL4-3 Protease L10R, M46I, L63P, V82T, I84V; test: Antiviral assay on PI-resistant virus; type: cell-based, HIV-1; details: ratio EC50 resistant virus / wt virus
[4] = molecular target: IN-LEDGF/p75 interaction (Human immunodeficiency virus type 1 group M subtype B, UniProt P12497); test: biochemical
Experimental: IN-LEDGF HTRF® assay was performed in 384-well low volume black polystyrene plates (Corning) using IN-LEDGF assay buffer (25 mM Tris–HCl pH 7.4, 150 mM NaCl, 2 mM MgCl2, 0.4 M KF, 0.1% Igepal CA-630, 0.1% bovine serum albumin, 1 mM DTT). […] The HTRF ratio was converted to % inhibition and analyzed by fitting a sigmoidal dose–response equation with Hill slope to determine the IC50 of the compound.

[5] = tested on: HIV-1 NL4-3 wt; type: cell-based
[6] = tested on: HIV-1 mutant IN A128T; test: Antiretroviral activity on HIV-1 mutant IN A128T; type: cell-based
[7] = tested on: HIV-1 NL4-3; test: Antiviral assay in MT-4 cells, multiple-round infection, CellTiter-Glo; type: cell-based
Experimental: MT-4 cells growing exponentially at the density of 10^6/mL were infected with HIV-1 strain NL4-3 at a MOI (multiplicity of infection) of 0.001 for 2 h. The cells were washed with PBS and aliquoted, using 100 μL fresh complete RPMI, into 96-well white plates (Corning) in the presence of different concentrations of compounds.

[8] = tested on: NL4-3 RT K103N, Y181C; test: Antiviral assay on NNRTI-resistant virus; type: cell-based, HIV-1; details: ratio EC50 resistant virus / wt virus
[9] = tested on: VSV-G-pseudotyped HIV-1 Δenv-Luc NL4-3; test: Time-of-addition experiment, single-round infection of MT4 cells; type: cell-based; details: 25 μM (saturating)
[10] = tested on: HIV-1 LAV virions produced by HeLa-LAV cells; test: Virions produced by compound-treated HeLa-LAV cells: p24 and infectivity; type: cell-based
[11] = molecular target: T1, IN 3′ processing activity (Human immunodeficiency virus type 1 group M subtype B, UniProt P12497); test: IN 3′ processing radioactive assay; type: biochemical, HIV-1; details: 0.01 to 100 μM
T1 construct: were carried out at 37°C with the full-length HIV-1 IN
Excerpt: Sequences of the different oligonucleotides (ODN) substrates are U5B: 5′-[…]-3′, U5A: 5′- […]-3′ and U5B-2: 5′-[…]-3′. ODNs were purchased from Eurogentec and further purified by electrophoresis in a denaturing 16% acrylamide/urea gel. For activity assays, ODNs (U5B and U5B-2) were radiolabelled with T4 polynucleotide kinase (New England Biolabs) and γ[^32-P]ATP (3000 Ci/mmol) (Amersham), and purified on a Sephadex G-10 column (GE Healthcare). Double-stranded ODNs (U5B with U5A and U5B-2 with U5A used for 3′-processing and strand transfer reactions, respectively) were obtained by mixing equimolar amounts of complementary strands in the presence of 100 mM NaCl.
IN activity assays – 3′-processing, strand transfer – were carried out at 37°C with the full-length HIV-1 IN, in a buffer containing 10 mM HEPES (pH 7.2), 1 mM DTT, 7.5 mM MgCl2 in the presence of 6.25 nM DNA (3′-processing) or 12.5 nM DNA (strand transfer) as described previously. For negative control, 100 mM Na2EDTA was added to the reaction before incubation. Products were separated by electrophoresis in denaturing 16% acrylamide/urea gels. Gels were analysed with a Molecular Dynamics STORM phosphoimager and quantified with ImageQuant™ 4.1 software.

SMILES: Cc1nc2c(c(-c3ccc4c(c3)CCCO4)c1C(OC(C)(C)C)C(=O)O)CCCC2 (centres unmarked) [Mut101, 2-(tert-butoxy)-2-[4-(3,4-dihydro-2H-1-benzopyran-6-yl)-2-methyl-5,6,7,8-tetrahydroquinolin-3-yl]acetic acid]
- EC50 fold change Multi-drug [1]: 1
- EC50 fold change NRTIs [2]: 1
- EC50 fold change PI [3]: 1
- IC50 ([4]; IC50 on IN-LEDGF interaction inhibition, LEDGF competition, increased value, highest LEDGF/p75 competing concentration (range 7.5 nM to 480 nM)): 680 nM
- IC50 ([4]; IC50 on IN-LEDGF interaction inhibition, LEDGF competition, starting value, lowest LEDGF/p75 competing concentration (range 7.5 nM to 480 nM)): 97 nM
- IC50 ([4]; IN-LEDGF IC50, Table 1, HTRF, full length proteins): 200 nM
- Infectivity of NL4-3 wt virus produced in presence of compound [5]: inactivated
- ARV activity on HIV-1 mutant IN A128T [6]: full ARV activity
- EC50 ([7]; Human immunodeficiency virus 1, NL43, MT4, Table 1, read-out: NL4-3 EC50 (MT4 assays)): 540 nM
- EC50 ([7]; Human immunodeficiency virus 1, NL43, MT4, Table 3, mean of two independent experiments, read-out: EC50 NL4-3 WT): 470 nM
- EC50 ([7]; Human immunodeficiency virus 1, NL43, MT4 cells, mean of six independent experiments, read-out: NL4-3 EC50 Multiple-round): 490 ± 40 nM
- EC50 fold change NNRTIs [8]: 1
- Behaviour in time-of-addition experiment [9]: behaved as an inhibitor of integration
- Virucidal effect on free virus released in supernatant [10]: unable to inactivate free virus
- Amount of p24 produced by treated HeLa-LAV cells ([10]; compared with Raltegravir, DMSO or Mut063 treatment): comparable
- Infectivity of virions from treated HeLa-LAV cells ([10]; luciferase assay in TZM cells): strong virus infectivity defects
- Maximum inhibition of IN 3′ processing [11]: 25-30%
